The source made the active and inactive calls.
Tests used:
[1] = Luminescence Cell-Based Dose Response HTS to Identify Inhibitors of 5'UTR Stem-Loop Driven Prion Protein mRNA Translation in H4 Neuroglioblastoma Cells. [Related pubchem assays: 1827 (Project Summary), 1813 (Primary HTS)]; assay type: functional
[2] = inhibitors of firefly luciferase expression or activity, dose response, H4 neuroglioma cells, luminescence (AID 1990); assay type: functional, cell-based
[3] = target: T1, Microphthalmia-associated transcription factor (Homo sapiens, UniProt O75030); assay: TRPM1 promoter luciferase signal decrease, dose response, MITF inhibitor project, cell-based, SK-MEL-5, cherry-picked, set 3 (AID 493073); assay type: functional
T1 sequence (O75030 whole entry): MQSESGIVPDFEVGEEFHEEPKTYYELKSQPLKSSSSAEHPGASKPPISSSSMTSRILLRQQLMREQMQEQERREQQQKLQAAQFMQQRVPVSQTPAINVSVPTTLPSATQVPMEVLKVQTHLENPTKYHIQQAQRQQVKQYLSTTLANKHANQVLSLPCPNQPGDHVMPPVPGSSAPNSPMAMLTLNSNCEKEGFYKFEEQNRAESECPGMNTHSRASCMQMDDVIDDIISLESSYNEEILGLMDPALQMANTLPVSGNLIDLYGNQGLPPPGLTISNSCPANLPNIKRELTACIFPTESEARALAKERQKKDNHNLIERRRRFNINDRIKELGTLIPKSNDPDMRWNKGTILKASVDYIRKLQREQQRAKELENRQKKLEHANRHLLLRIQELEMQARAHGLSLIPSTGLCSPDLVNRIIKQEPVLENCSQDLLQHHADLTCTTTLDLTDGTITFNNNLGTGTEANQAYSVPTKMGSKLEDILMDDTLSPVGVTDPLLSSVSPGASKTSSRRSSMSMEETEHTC

[4] = target: Nuclear receptor subfamily 0 group B member 1 (Homo sapiens, UniProt P51843); assay type: functional, cell-based;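 note: HEK293T cells transfected with SF-1 and DAX-1 plus StAR promoter luciferase reporter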
cells [5] = assay type: functional, cell-based
[6] = luciferase reporter signal reduction – luminescence, H4-C neuroglioblastoma cells, dose response (AID 2458); assay type: functional, cell-based;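 note: H4 neuroglioblastoma cells stably carrying a luciferase reporter gene fusion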
Paired box protein Pax-8 = Paired box protein Pax-8 (Homo sapiens, UniProt Q06710); assay: inhibitors of PAX8-driven TPO luciferase reporter, dose response, RMG-I cells, cherry-pick (AID 687027); assay type: functional, cell-based;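 note: luciferase reporter driven by Pax8 target thyroperoxidase promoter measured by SteadyGlo luminescence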
[7] = inhibitors of SNCA 5'UTR-driven reporter translation, confirmation, H4 neuroglioma cells, luminescence (AID 1988); assay type: functional, cell-based
[8] = IOSE-T80 ovarian epithelial cell cytotoxicity, dose response, cytotoxicity control for PAX8 inhibitor project, plate reader, dry powder samples (AID 743045); assay type: functional, cell-based
[9] = IGROV1 ovarian cancer cell cytotoxicity, dose response, PAX8 inhibitor project, plate reader, dry powder samples (AID 743043); assay type: functional, cell-based; settings: IGROV-1
A-375 [10] = assay: MITF: Counter assay: A375 proliferation Measured in Cell-Based System Using Plate Reader - 2084-03_Inhibitor_Dose_DryPowder_Activity. [Related pubchem assays (depositor defined):AID488944]; assay type: functional; settings: Homo sapiens
[11] = cytotoxicity dependent on PAX8, dose response, cell-based, plate reader, dry powder (AID 743049); assay type: functional
[12] = PAX2 cell-based inhibition, dose response, selectivity assay for PAX8 inhibitor project, plate reader, dry powder samples (AID 743048); assay type: functional;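 note: HEK293 cells carrying a WT1 promoter luciferase reporter driven by expressed Pax2; potency is for inhibition of Pax2 driven reporter signal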
[13] = cytotoxicity toward DRD oncogenic fibroblasts, dose response, cell-based, non-viral oncogenic, luminescence (AID 1934); assay type: functional; settings: Homo sapiens
BJ [14] = assay: cells; assay type: functional, cell-based, Homo sapiens; settings: Homo sapiens, BJ
cells [15] = assay type: functional, cell-based; remark: listed apart in the source
[16] = cytotoxicity in HEK-293T cells, dose response, cytotoxicity control for TCR NF-kB inhibitor project, luminescence, T-cell screen hits (AID 489026); assay type: functional, cell-based;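 note: cells exposed to compound about 14 hours before the viability readout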
[17] = cytotoxicity in COV362 ovarian cancer cells, dose response, cytotoxicity control for PAX8 inhibitor project, cell-based, plate reader, dry powder, SA12 (AID 743144); assay type: functional
[18] = NIH:OVCAR-3 ovarian cancer cell cytotoxicity, dose response, PAX8 inhibitor project, plate reader, dry powder samples (AID 743044); assay type: functional, cell-based
[19] = cytotoxicity in OVCAR4 cells, dose response, cytotoxicity control for PAX8 inhibitor project, cell-based, plate reader, dry powder, SA11 (AID 743150); assay type: functional; settings: OVCAR-4
BJ [20] = assay: cytotoxicity toward BJ-TERT fibroblasts, dose response, cell-based, RAS-independent, luminescence (AID 1933); assay type: functional, Homo sapiens; settings: Homo sapiens, BJ
[21] = cytotoxicity in COV434 cells, dose response, cytotoxicity control for PAX8 inhibitor project, cell-based, plate reader, dry powder, SA7 (AID 743145); assay type: functional
[22] = PAX5 activity inhibitors, dose response, selectivity assay for PAX8 inhibitor project, cell-based, plate reader, dry powder samples (AID 743047); assay type: functional;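 note: HEK293 cells carrying a Pax5 driven CD19 promoter luciferase reporter; potency of inhibitors that lower reporter luminescence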
[23] = inhibitors of SNCA 5'UTR-driven translation, confirmation, luminescence, H4 neuroglioblastoma cells, dose confirmation (AID 2454); assay type: functional, cell-based;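 note: H4 neuroglioblastoma cells carrying an alpha-synuclein 5'UTR luciferase reporter; potency for inhibition of the luciferase signal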
[24] = A2780 ovarian cancer cell cytotoxicity, dose response, cytotoxicity control, plate reader, dry powder samples (AID 743046); assay type: functional, cell-based
[25] = cytotoxicity in OV-90 ovarian cancer cells, dose response, PAX8 inhibitor project, cell-based, plate reader, dry powder, SA8 (AID 743149); assay type: functional
A-375 [26] = assay: A375 melanoma cell viability reduction, dose response, counter-screen for MITF modulator project, cherry-pick samples, set 2 (AID 540335); assay type: functional, cell-based; settings: Homo sapiens
[27] = target: Heat shock protein HSP 90-alpha (Homo sapiens, UniProt P07900); assay type: functional, organism-based
[28] = microbe, parasite or virus in culture; assay type: functional; settings: Mycobacterium tuberculosis
[29] = target: Glucose-6-phosphate 1-dehydrogenase (Homo sapiens, UniProt P11413); assay: human G6PD enzyme inhibitors, dose response, selectivity assay for P. falciparum G6PD inhibitor project, biochemical, fluorescence (AID 504792); assay type: functional
[30] = target: Voltage-gated inwardly rectifying potassium channel KCNH2 (Homo sapiens, UniProt Q12809); settings: Potency;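 note: confirmatory quantitative high-throughput screen measuring inhibition of hERG channel activity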
[31] = target: T2, Endoribonuclease toxin MazF (Escherichia coli K-12, UniProt P0AE70); assay: fluorescent RNA oligo signal without MazF, dose response, counter-screen for MazEF activator project, biochemical, fluorescence, single-stranded RNase substrate (AID 588502); assay type: functional
[32] = target: T2, Endoribonuclease toxin MazF; assay: MazF toxin RNase activators, dose response, biochemical, fluorescence, single-stranded RNA substrate, uHTS hits (AID 588481); assay type: functional

T2 sequence (P0AE70 whole entry): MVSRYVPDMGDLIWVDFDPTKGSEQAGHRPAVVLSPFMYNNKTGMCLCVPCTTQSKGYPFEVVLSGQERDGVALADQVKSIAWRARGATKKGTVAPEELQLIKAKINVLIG
Sequence of Paired box protein Pax-8 (Q06710 whole entry): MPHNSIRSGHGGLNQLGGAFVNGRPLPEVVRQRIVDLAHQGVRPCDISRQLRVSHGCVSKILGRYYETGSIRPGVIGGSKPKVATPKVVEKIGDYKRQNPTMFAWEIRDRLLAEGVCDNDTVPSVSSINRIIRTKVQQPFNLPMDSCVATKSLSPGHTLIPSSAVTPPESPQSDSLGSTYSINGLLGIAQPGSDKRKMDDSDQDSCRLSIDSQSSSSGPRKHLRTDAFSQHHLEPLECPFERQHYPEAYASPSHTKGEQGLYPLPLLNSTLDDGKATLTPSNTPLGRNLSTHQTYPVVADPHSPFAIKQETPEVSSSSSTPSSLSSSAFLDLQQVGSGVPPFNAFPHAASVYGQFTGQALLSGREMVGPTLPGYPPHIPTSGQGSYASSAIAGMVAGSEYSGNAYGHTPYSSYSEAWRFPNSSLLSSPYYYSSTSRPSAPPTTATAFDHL
Sequence of Glucose-6-phosphate 1-dehydrogenase (P11413 whole entry): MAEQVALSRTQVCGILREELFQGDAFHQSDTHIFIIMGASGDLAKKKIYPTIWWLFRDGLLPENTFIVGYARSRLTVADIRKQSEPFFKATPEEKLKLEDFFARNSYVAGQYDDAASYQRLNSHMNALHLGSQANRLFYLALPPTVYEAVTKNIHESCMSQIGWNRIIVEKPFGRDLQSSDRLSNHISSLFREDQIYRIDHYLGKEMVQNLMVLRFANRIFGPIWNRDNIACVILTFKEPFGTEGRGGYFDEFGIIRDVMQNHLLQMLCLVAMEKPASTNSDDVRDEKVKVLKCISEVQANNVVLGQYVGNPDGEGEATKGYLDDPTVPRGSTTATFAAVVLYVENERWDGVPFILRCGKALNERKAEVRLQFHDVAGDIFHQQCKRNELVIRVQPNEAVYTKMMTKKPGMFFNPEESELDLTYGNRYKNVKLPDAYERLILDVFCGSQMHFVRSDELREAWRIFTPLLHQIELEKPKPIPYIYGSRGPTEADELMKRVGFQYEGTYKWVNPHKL
Sequence of Nuclear receptor subfamily 0 group B member 1 (P51843 whole entry): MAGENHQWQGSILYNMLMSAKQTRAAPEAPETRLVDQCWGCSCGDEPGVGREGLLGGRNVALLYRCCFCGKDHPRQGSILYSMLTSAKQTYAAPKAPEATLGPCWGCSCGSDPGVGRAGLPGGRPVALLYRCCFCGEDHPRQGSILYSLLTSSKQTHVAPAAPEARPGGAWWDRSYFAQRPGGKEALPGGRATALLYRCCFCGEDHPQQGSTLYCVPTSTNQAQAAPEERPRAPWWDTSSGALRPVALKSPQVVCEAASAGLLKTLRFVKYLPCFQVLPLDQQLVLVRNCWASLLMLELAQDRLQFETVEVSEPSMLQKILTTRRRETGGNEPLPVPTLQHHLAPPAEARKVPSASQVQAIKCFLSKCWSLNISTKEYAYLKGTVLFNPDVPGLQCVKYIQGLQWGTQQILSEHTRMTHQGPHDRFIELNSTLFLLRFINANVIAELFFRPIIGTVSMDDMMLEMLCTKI
Sequence of Voltage-gated inwardly rectifying potassium channel KCNH2 (Q12809 whole entry): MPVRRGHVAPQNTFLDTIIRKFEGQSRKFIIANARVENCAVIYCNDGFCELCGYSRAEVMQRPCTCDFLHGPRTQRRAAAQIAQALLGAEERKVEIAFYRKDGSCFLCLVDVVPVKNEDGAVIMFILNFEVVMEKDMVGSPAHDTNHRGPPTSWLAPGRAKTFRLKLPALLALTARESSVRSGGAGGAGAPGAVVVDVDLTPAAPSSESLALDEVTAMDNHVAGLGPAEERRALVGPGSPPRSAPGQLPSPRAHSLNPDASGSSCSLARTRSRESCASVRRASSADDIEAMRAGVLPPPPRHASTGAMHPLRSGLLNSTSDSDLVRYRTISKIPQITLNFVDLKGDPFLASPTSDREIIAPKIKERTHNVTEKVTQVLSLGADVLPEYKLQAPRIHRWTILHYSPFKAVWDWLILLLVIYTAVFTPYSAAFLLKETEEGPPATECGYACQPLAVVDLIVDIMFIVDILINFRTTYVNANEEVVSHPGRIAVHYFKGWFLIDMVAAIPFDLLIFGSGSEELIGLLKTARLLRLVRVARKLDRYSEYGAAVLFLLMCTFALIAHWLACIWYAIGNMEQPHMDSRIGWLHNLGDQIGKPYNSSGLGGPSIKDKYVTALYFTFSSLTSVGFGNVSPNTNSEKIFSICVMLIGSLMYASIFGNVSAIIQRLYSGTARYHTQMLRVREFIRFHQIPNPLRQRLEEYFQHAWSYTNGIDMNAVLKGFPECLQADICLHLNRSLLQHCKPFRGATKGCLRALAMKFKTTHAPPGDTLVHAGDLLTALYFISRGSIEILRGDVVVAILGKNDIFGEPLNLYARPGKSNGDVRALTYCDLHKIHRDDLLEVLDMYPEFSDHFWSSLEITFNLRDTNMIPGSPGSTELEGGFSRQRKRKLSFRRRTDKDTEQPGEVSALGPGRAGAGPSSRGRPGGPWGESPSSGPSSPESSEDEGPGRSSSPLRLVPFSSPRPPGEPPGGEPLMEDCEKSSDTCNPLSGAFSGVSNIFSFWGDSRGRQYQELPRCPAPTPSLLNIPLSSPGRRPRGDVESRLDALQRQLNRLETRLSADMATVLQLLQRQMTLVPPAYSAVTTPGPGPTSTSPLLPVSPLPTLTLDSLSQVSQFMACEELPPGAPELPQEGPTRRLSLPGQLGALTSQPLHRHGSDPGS

## COc1cccc(N2CCN(C(=O)c3ccc(C[S+]([O-])c4ccccc4Cl)o3)CC2)c1 (stereo not drawn)
[1]
  EC50: < 0.1 µM (active)
[2]
  EC50: < 0.1 µM (active)
[3]
  AC50: 0.894 µM (active)
[4]
  IC50: > 67.6 µM (inactive)
Cells [5]
  IC50: > 67.6 µM (inactive)
[6]
  EC50: 0.202 µM (active)
Paired box protein Pax-8
  AC50: 0.921 µM (active)
[7]
  EC50: < 0.1 µM (active)
[8]
  AC50: 0.537 µM (active)
[9]
  AC50: 72 µM (active)
A-375 [10]
  AC50: > 35 µM (active)
[11]
  AC50: 22 µM (active)
[12]
  AC50: 37.5 µM (active)
[13]
  EC50: 0.225 µM (active)
BJ [14]
  EC50: 37.7 µM (inconclusive)
Cells [15]
  EC50: 0.345 µM (active)
[16]
  IC50: 58 µM (inactive)
[17]
  AC50: 2.03 µM (active)
[18]
  AC50: 0.478 µM (active)
[19]
  AC50: 0.646 µM (active)
BJ [20]
  EC50: 0.214 µM (active)
[21]
  AC50: 0.684 µM (active)
[22]
  AC50: 3.98 µM (active)
[23]
  EC50: 0.354 µM (active)
[24]
  AC50: 5 µM (active)
[25]
  AC50: 2.03 µM (active)
A-375 [26]
  AC50: > 35 µM (active)

## CCCCCCCCn1sccc1=O
[27]
  AC50: 0.649 µM (active)
[28]
  CC50: 11.3 µM (active)
[29]
  IC50: 59.3 µM (inactive)
[30]
  AC50: 44.7 µM (inconclusive)

## Cc1c(C=NNC(=O)c2ccc(Br)cc2)c2ccccn2c1C(=O)c1ccncc1
[31]
  EC50: > 99 µM (inactive)
[32]
  EC50: > 99 µM (inactive)
